Results taken from patent US12636366B2, “Ruthenium (II) complexes and conjugates thereof for use as photosensitizer agent in photodynamic therapy” (Paris Sciences et Lettres, priority 2019, dated 2026).

Columns and labels:
Cys-34 residue of HSA = Cys-34 residue of HSA (Homo sapiens, UniProt P02768)
Method: UV-visible (UV-Vis) spectrophotometry was monitored on an Agilent Cary 8454 diode array spectrophotometer in the wavelength range between 190 and 1100 nm.
Interaction of complex 12 at the Cys-34 residue of HSA was investigated spectrophotometrically via the dithiodipyridine (DTDP) method described previously (Pichler et al., 2013). […] A first series of UV-Vis spectra (a) were recorded before addition of 110 μM DTDP and a second series of UV-Vis spectra (b) were recorded after addition of 110 μM DTDP and after another 40 min waiting. […] Blank experiment with compound 13 was carried out as well as a control experiment. The effect of protein unfolding on the thiol binding of complex 12 was studied by the addition of 0.5% (m/m) SDS to the protein prior to its reaction with the complex. This experiment allows to determine the amount of free Cys-34 residue of HSA as a function of the added equivalent of the complexes.

[1] = cited from earlier work

Chain of Cys-34 residue of HSA (P02768 25-609): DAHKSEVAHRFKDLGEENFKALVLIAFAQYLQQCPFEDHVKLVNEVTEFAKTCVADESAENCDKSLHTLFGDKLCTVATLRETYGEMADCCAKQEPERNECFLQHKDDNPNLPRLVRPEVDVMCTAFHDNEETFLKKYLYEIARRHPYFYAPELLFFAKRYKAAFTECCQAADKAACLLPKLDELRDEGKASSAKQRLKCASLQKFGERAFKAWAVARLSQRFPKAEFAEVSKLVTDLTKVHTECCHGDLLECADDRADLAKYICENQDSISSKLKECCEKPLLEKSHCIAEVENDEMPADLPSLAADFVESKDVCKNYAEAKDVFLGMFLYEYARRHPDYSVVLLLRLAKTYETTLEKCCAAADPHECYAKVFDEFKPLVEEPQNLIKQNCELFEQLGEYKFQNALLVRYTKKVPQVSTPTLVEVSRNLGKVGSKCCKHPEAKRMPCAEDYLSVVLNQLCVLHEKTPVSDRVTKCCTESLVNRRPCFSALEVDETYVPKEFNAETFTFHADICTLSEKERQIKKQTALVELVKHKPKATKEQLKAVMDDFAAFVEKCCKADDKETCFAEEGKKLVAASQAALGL

With “[Ru(bphen)2(Me-maleimidemethyl)](Cl)2 [Compound 12]” the “Interaction with Cys-34 thiol group of unfolded HSA” value (Cys-34 residue of HSA; 0.5% SDS as denaturing agent, 0.5 h incubation) was “nearly quantitative interaction” and the “Effect of incubation time on Cys-34 interaction” value (Cys-34 residue of HSA; 3 h versus 30 min incubation with HSA) was “did not result in remarkable differences”.

In the case of `Cc1ccnc(-c2cc(C)ccn2)c1.[Cl-].[Cl-].[Ru+2].c1ccc(-c2ccnc3c2ccc2c(-c4ccccc4)ccnc23)cc1.c1ccc(-c2ccnc3c2ccc2c(-c4ccccc4)ccnc23)cc1` [Compound 13, (4,4′-Dimethyl-2,2′-bipyridine)bis(4,7-diphenyl-1,10-phenanthroline)ruthenium(II) dichlorine], the “Interaction with Cys-34 thiol group (free thiol content) of native HSA” value (Cys-34 residue of HSA; 133 μM HSA, 0-120 μM complex, 3 h or 30 min, pH=7.00 (PBS)) is reported as “affects barely the quantity of free thiol groups”.

In the case of `O=C1C=Cc2cccc3cccc1c23` [phenalenone], the “Φ(1O2) of reference in CH3CN” value ([1]; solution in CH3CN) is listed as 0.95.

For `[Cl-].[Cl-].[Ru+2].c1ccc(-c2ccccn2)nc1.c1ccc(-c2ccccn2)nc1.c1ccc(-c2ccccn2)nc1` [[Ru(bipy)3]Cl2], the “Φ(1O2) of reference in D2O / water” value ([1]; solution in D2O / water) is given as 0.22.
